Measurements taken from paper PMC6356164, “Identification of a novel lactose oxidase in Myrmecridium flexuosum NUK‐21” (FEBS Open Bio, 2019).

Test system: T1, lactose oxidase (LOD)
T1 construct: native enzyme purified from wheat bran solid culture; 2 Zn per mole, no FAD or heme
Assay: peroxidase-4-aminoantipyrine assay, Hanes-Woolf plot
Format: biochemical, Myrmecridium flexuosum
Details: 50 mM Tris-HCl pH 7.8, 30 °C, O2 as acceptor
Excerpt: peroxidase-4-aminoantipyrine assay, Hanes-Woolf plot on lactose oxidase (LOD)

[1] = substrate inhibition above 1 mM

| Km [1] [µM] | Km [µM] | SMILES |
| --- | --- | --- |
| 63 | – | OC[C@H]1O[C@@H](O[C@H]2[C@H](O)[C@@H](O)C(O)O[C@@H]2CO)[C@H](O)[C@@H](O)[C@@H]1O (stereo partly drawn) [Cellobiose] |
| 76 | – | OC[C@H]1O[C@@H](O[C@H]2[C@H](O)[C@@H](O)C(O)O[C@@H]2CO)[C@H](O)[C@@H](O)[C@H]1O (stereo partly drawn) [Lactose] |
| – | 22000 | OC[C@H]1O[C@H](O[C@H]2[C@H](O)[C@@H](O)C(O)O[C@@H]2CO)[C@H](O)[C@@H](O)[C@@H]1O (stereo partly drawn) [Maltose] |
